Test results reported in PMC8595653, “Activation of specific bitter taste receptors by olive oil phenolics and secoiridoids” (Scientific Reports, 2021).
“Also recorded” adds a separate entry of the source. One block for each molecule: values may come before it.

How the values were obtained:
Assay type in all cases: cell-based
TAS2R8 = target: T1, TAS2R8 (Homo sapiens, UniProt Q9NYW2); test: Calcium mobilization functional assay, TAS2R8 co-expressed with Gα16-gust44 and GCaMP in HEK293E cells; conditions: for potency and efficacy on TAS2R8 in words: concentration-response experiments, maximal concentration 10 mM for oleuropein; for times more potent than oleuropein: potency of bitter receptor activation relative to oleuropein (1)
T1 construct: first 45 amino acids of rat somatostatin type 3 receptor (SSTR3) export tag (N); expressed in transfected cells; host or cells: HEK293E
T1 sequence (Q9NYW2 1-309): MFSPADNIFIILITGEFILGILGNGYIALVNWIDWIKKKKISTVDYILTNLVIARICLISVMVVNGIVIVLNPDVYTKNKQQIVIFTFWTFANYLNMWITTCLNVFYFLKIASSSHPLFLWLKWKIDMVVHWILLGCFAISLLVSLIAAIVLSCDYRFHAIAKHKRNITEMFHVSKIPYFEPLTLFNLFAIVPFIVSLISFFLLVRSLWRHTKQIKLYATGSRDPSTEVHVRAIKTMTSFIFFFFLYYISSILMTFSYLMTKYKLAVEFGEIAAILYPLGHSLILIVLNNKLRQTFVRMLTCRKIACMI
Description: (§1) All constructs were confirmed by DNA sequencing.
(§2) Data from single dose experiments were collected as duplicates. […] Data represent mean ± SD.
(§3) To characterize the bitterness of olive oil phenolic compounds, we performed calcium mobilization experiments. The 25 bitter taste receptors, G protein chimera (Gα16-gus44), and the GCaMP calcium sensor[68] were transiently expressed in HEK293E cells. Twelve olive oil phenolic compounds (Fig. 1) were tested for bitter taster receptor activation (Fig. 3). […] Ligstroside aglycon, and Oleuropein aglycon activated TAS2R1, TAS2R8 and TAS2R14 receptors. To validate the single dose scanning results, we performed concentration–response experiments for all the compounds toward receptors TAS2R1, TAS2R8, and TAS2R14 that produced the most significant responses (Fig. 4).

TAS2R14 = target: T2, TAS2R14 (Homo sapiens, UniProt Q9NYV8); test: Calcium mobilization functional assay, TAS2R14 co-expressed with Gα16-gust44 and GCaMP in HEK293E cells
T2 construct: first 45 amino acids of rat somatostatin type 3 receptor (SSTR3) export tag (N); expressed in transfected cells; host or cells: HEK293E
T2 sequence (Q9NYV8 1-317): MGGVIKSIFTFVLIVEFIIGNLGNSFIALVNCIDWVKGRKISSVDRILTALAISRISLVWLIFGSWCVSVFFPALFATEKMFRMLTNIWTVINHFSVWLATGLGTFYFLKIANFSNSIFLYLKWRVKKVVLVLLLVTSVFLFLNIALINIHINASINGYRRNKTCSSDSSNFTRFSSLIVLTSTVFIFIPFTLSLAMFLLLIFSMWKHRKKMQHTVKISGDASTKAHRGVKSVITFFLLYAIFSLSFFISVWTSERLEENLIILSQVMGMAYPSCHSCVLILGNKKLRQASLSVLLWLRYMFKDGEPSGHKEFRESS
Description: as §1, §2, §3

TAS2R1 = target: T3, TAS2R1 (Homo sapiens, UniProt Q9NYW7); test: Calcium mobilization functional assay, TAS2R1 co-expressed with Gα16-gust44 and GCaMP in HEK293E cells
T3 construct: first 45 amino acids of rat somatostatin type 3 receptor (SSTR3) export tag (N); expressed in transfected cells; host or cells: HEK293E
T3 sequence (Q9NYW7 1-299): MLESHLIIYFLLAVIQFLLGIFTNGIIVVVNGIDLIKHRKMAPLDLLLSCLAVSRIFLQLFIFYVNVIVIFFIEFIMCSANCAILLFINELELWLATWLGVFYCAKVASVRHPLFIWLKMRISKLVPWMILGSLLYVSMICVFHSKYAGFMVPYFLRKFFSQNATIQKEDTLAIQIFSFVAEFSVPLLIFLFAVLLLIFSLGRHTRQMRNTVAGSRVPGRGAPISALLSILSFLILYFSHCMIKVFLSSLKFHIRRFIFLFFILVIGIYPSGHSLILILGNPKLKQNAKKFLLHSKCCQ
Description: as §1, §2, §3

25 human TAS2Rs = test: Single dose scanning of phenolic compounds on the 25 bitter taste receptors (calcium mobilization, HEK293E); conditions: single dose 300 µM, 25 TAS2Rs, N = 2
Description: as §1, §2, §3
Figure 3 Phenolic compound bitter taste activity tests on hTAS2Rs. Relative fluorescence signals caused by phenolic compound activation of the receptors and the empty vector as a negative control. The concentration of the compounds used was [300 µM], except for Ligstroside aglycon and Oleuropein aglycon [200 µM], oleuropein that was [3 mM]. The asterisks indicate significant differences tested by one-way ANOVA (***p < 0.0001) (N = 2). Data represent mean ± SD.

[1] = HEK293E, normalized to the highest response of TAS2R8 to oleuropein aglycon (100%), N = 3

Compound: COC(=O)C1=COC(C)C(C=O)C1CC(=O)O (stereo not shown) [Elenolic acid, elenolic acid]
potency and efficacy on TAS2R8 in words (TAS2R8): activated weakly and less potently; also recorded: activated TAS2R8 with lower potency
activation of TAS2R8 over background (TAS2R8; single dose 300 µM): activate
activation of TAS2R8 over background (TAS2R8; single dose 300 µM, listed as elenolic acid): activated significantly

Compound: C/C=C(/C=O)[C@@H](CC=O)CC(=O)OCCc1ccc(O)c(O)c1 [Oleacein, oleacein]
activation of any TAS2R (25 human TAS2Rs): did not activate any TAS2Rs; also recorded: did not show any activation of bitter receptors; also recorded: failed to activate any TAS2Rs

Compound: OCCc1ccc(O)cc1 [Tyrosol, tyrosol]
activation of any TAS2R (25 human TAS2Rs): did not activate any TAS2Rs; also recorded: failed to activate any bitter receptor; also recorded: failed to activate any TAS2Rs

Compound: O=C(O)c1ccccc1Nc1cccc(C(F)(F)F)c1 [flufenamic acid, reference compound]
activation of TAS2R14 (TAS2R14; 0.3 mM, versus empty pcDNA vector): activated

Compound: OCCc1ccc(O)c(O)c1 [Hydroxytyrosol, hydroxytyrosol]
activation of any TAS2R (25 human TAS2Rs): failed to activate any bitter receptor

Compound: CC=C1C(OC2OC(CO)C(O)C(O)C2O)OC=C(C(=O)OC)C1CC(=O)O (stereo not shown) [Oleoside-methylester, oleoside-11-methylester]
activation of any TAS2R (25 human TAS2Rs; listed as oleoside-11-methyl ester): failed to activate any bitter receptor
activation of any TAS2R (25 human TAS2Rs; listed as oleoside-methylester): did not activate any TAS2Rs; also recorded: failed to activate any TAS2Rs

Further lines, with some results ahead:

potency and efficacy on TAS2R8 in words (TAS2R8): activated TAS2R8 with lower potency
potency and efficacy on TAS2R8 in words (TAS2R8; listed as oleocanthalic acid): activated weakly and less potently
activation of TAS2R8 over background (TAS2R8; single dose 300 µM): activate
activation of TAS2R8 over background (TAS2R8; single dose 300 µM, listed as oleocanthalic acid): activated significantly
Compound: C/C=C(/C=O)[C@@H](CC(=O)O)CC(=O)OCCc1ccc(O)cc1 [Oleocanthalic acid, oleocanthalic acid]

times more potent than oleuropein (TAS2R8): ~50 times
Compound: COC(=O)C1=COC(C)C(C=O)C1CC(=O)OCCc1ccc(O)c(O)c1 (single isomer, unassigned; isomer a) [Oleuropein aglycon closed-type (5a), oleuropein aglycon closed-type (isomer A)]

potency and efficacy on TAS2R14 in words (TAS2R14; concentration-response experiments, compared with ligstroside aglycon): even less potent and efficacious
activation of TAS2R14 (TAS2R14; single dose 200 µM): activated
Emax (TAS2R8; [1]): 100%
EC50 (TAS2R8; dose-response, N = 3, HEK293E): 57.3 µM
times more potent than oleuropein (TAS2R8): ~50 times
activation of TAS2R8 (TAS2R8; single dose 200 µM): activated
Emax (TAS2R1; [1]): 67.6%
EC50 (TAS2R1; dose-response, N = 3, HEK293E): 142 µM
activation of TAS2R1 (TAS2R1; single dose 200 µM): activated
Compound: COC(=O)C1=COC(C)C(C=O)C1CC(=O)OCCc1ccc(O)c(O)c1 (single isomer, unassigned; isomer b) [Oleuropein aglycon (5b), oleuropein aglycon closed-type (isomer B)]

potency and efficacy on TAS2R8 in words (TAS2R8): activated weakly and less potently
potency and efficacy on TAS2R8 in words (TAS2R8; listed as oleomissinal): activated TAS2R8 with lower potency
activation of TAS2R8 over background (TAS2R8; single dose 300 µM): activate
activation of TAS2R8 over background (TAS2R8; single dose 300 µM, listed as oleomissional): activated significantly
Compound: C/C=C(/C=O)C(CC(=O)OCCc1ccc(O)c(O)c1)/C(=C/O)C(=O)OC (stereo not shown) [Oleomissional, oleomissional]

potency lower compared to the aglycons (TAS2R8; TAS2R8): 50 fold
activation of TAS2R8 over background (TAS2R8; single dose 3 mM, listed as oleuropein): activated significantly
Compound: C/C=C1/[C@H](O[C@@H]2O[C@H](CO)[C@@H](O)[C@H](O)[C@H]2O)OC=C(C(=O)OC)[C@H]1CC(=O)OCCc1ccc(O)c(O)c1 [Oleuropein, oleuropein]
potency and efficacy on TAS2R8 in words (TAS2R8): high efficacy on TAS2R8 but very low potency and did not reach saturation
activation of TAS2R8 over background (TAS2R8; single dose 3 mM): activate; also recorded: activated TAS2R8 only
